The NIST ThermoML archive (doi:10.1021/je060271a)
Values joined by “and” are separate entries in the source; they are usually repeats but may differ in a detail not shown here. Equal entries are not always repeated.

Conditions: Liquid, Vibrating tube method

CCCCC(=O)OCC(COC(=O)CCCC)(COC(=O)CCCC)COC(=O)CCCC [pentaerythritol tetrapentanoate]
Conditions | mass density
323.15 K, 31189 kPa | 1015 kg/m3
323.15 K, 31223 kPa | 1015.1 kg/m3
323.15 K, 31256 kPa | 1015.1 kg/m3
323.15 K, 31290 kPa | 1015.1 kg/m3
323.15 K, 31330 kPa | 1015.1 kg/m3
323.15 K, 31363 kPa | 1015 kg/m3
323.15 K, 31397 kPa | 1015.2 kg/m3
323.15 K, 31438 kPa | 1015.2 kg/m3
323.15 K, 31473 kPa | 1015.2 kg/m3
323.15 K, 31507 kPa | 1015.2 kg/m3
323.15 K, 31540 kPa | 1015.3 kg/m3
323.15 K, 31581 kPa | 1015.3 kg/m3
323.15 K, 31615 kPa | 1015.4 kg/m3
323.15 K, 31649 kPa | 1015.3 kg/m3
323.15 K, 31689 kPa | 1015.3 kg/m3
323.15 K, 31724 kPa | 1015.3 kg/m3
323.15 K, 31758 kPa | 1015.3 kg/m3
323.15 K, 31794 kPa | 1015.4 kg/m3
323.15 K, 31834 kPa | 1015.5 kg/m3
323.15 K, 31869 kPa | 1015.4 kg/m3
323.15 K, 31914 kPa | 1015.4 kg/m3
323.15 K, 31941 kPa | 1015.6 kg/m3
323.15 K, 31982 kPa | 1015.4 kg/m3
323.15 K, 32017 kPa | 1015.6 kg/m3
323.15 K, 32052 kPa | 1015.6 kg/m3
323.15 K, 32093 kPa | 1015.7 kg/m3
323.15 K, 32128 kPa | 1015.6 kg/m3
323.15 K, 32170 kPa | 1015.7 kg/m3
323.15 K, 32206 kPa | 1015.7 kg/m3
323.15 K, 32240 kPa | 1015.6 kg/m3
323.15 K, 32283 kPa | 1015.7 kg/m3
323.15 K, 32318 kPa | 1015.7 kg/m3
323.15 K, 32354 kPa | 1015.8 kg/m3
323.15 K, 32398 kPa | 1015.8 kg/m3
323.15 K, 32434 kPa | 1015.8 kg/m3
323.15 K, 32470 kPa | 1015.8 kg/m3
323.15 K, 32513 kPa | 1015.7 kg/m3
323.15 K, 32550 kPa | 1015.9 kg/m3
323.15 K, 32586 kPa | 1015.9 kg/m3
323.15 K, 32623 kPa | 1015.9 kg/m3
323.15 K, 32666 kPa | 1016 kg/m3
323.15 K, 32701 kPa | 1016 kg/m3
323.15 K, 32745 kPa | 1015.9 kg/m3
323.15 K, 32782 kPa | 1016.1 kg/m3
323.15 K, 32820 kPa | 1016 kg/m3
323.15 K, 32864 kPa | 1016.1 kg/m3
323.15 K, 32902 kPa | 1016 kg/m3
323.15 K, 32939 kPa | 1016.1 kg/m3
323.15 K, 32977 kPa | 1016.1 kg/m3
323.15 K, 33022 kPa | 1016.1 kg/m3
323.15 K, 33058 kPa | 1016.2 kg/m3
323.15 K, 33096 kPa | 1016.1 kg/m3
323.15 K, 33141 kPa | 1016.2 kg/m3
323.15 K, 33179 kPa | 1016.3 kg/m3
323.15 K, 33224 kPa | 1016.3 kg/m3
323.15 K, 33262 kPa | 1016.2 kg/m3
323.15 K, 33300 kPa | 1016.2 kg/m3
323.15 K, 33338 kPa | 1016.3 kg/m3
323.15 K, 33384 kPa | 1016.4 kg/m3
323.15 K, 33423 kPa | 1016.4 kg/m3
323.15 K, 33462 kPa | 1016.3 kg/m3
323.15 K, 33508 kPa | 1016.5 kg/m3
323.15 K, 33546 kPa | 1016.4 kg/m3
323.15 K, 33593 kPa | 1016.5 kg/m3
323.15 K, 33633 kPa | 1016.5 kg/m3
323.15 K, 33672 kPa | 1016.4 kg/m3
323.15 K, 33712 kPa | 1016.4 kg/m3
323.15 K, 33760 kPa | 1016.6 kg/m3
323.15 K, 33800 kPa | 1016.5 kg/m3
323.15 K, 33841 kPa | 1016.5 kg/m3
323.15 K, 33890 kPa | 1016.6 kg/m3
323.15 K, 33934 kPa | 1016.6 kg/m3
323.15 K, 33978 kPa | 1016.7 kg/m3
323.15 K, 34031 kPa | 1016.8 kg/m3
323.15 K, 34078 kPa | 1016.7 kg/m3
323.15 K, 34125 kPa | 1016.7 kg/m3
323.15 K, 34165 kPa | 1016.8 kg/m3
323.15 K, 34193 kPa | 1016.8 kg/m3
323.15 K, 34215 kPa | 1016.8 kg/m3
323.15 K, 34242 kPa | 1016.9 kg/m3
323.15 K, 34266 kPa | 1016.9 kg/m3
323.15 K, 34294 kPa | 1016.8 kg/m3
323.15 K, 34311 kPa | 1016.8 kg/m3
323.15 K, 34334 kPa | 1016.9 kg/m3
323.15 K, 34359 kPa | 1017 kg/m3
323.15 K, 34383 kPa | 1016.9 kg/m3
323.15 K, 34414 kPa | 1017 kg/m3
323.15 K, 34441 kPa | 1016.9 kg/m3
323.15 K, 34467 kPa | 1016.9 kg/m3
323.15 K, 34492 kPa | 1017 kg/m3
323.15 K, 34493 kPa | 1017.1 kg/m3
323.15 K, 34495 kPa | 1017 kg/m3
323.15 K, 34498 kPa | 1017 kg/m3
323.15 K, 34500 kPa | 1017.1 kg/m3
323.15 K, 34502 kPa | 1017.1 kg/m3
323.15 K, 34504 kPa | 1017.1 kg/m3
323.15 K, 34507 kPa | 1017.1 kg/m3
323.15 K, 34510 kPa | 1017 kg/m3
343.14 K, 4331.4 kPa | 981.8 kg/m3
343.14 K, 4369.7 kPa | 981.9 kg/m3
343.14 K, 4403.1 kPa | 981.9 kg/m3
343.14 K, 4438.3 kPa | 981.9 kg/m3
343.14 K, 4480.3 kPa | 982 kg/m3
343.14 K, 4516.3 kPa | 982 kg/m3
343.14 K, 4553 kPa | 982.1 kg/m3
343.14 K, 4648.1 kPa | 982.1 kg/m3
343.14 K, 4649.8 kPa | 982.1 kg/m3
343.14 K, 4651.7 kPa | 982.2 kg/m3
343.14 K, 4656 kPa | 982.2 kg/m3
343.14 K, 4659.5 kPa | 982 kg/m3
343.14 K, 4659.7 kPa | 982.3 kg/m3 and 982.2 kg/m3
343.14 K, 4661.6 kPa | 982.1 kg/m3
343.14 K, 4661.9 kPa | 982 kg/m3
343.14 K, 4662.1 kPa | 982.1 kg/m3 and 982 kg/m3
343.14 K, 4662.3 kPa | 982.1 kg/m3
343.14 K, 4662.4 kPa | 982.2 kg/m3
343.14 K, 4662.6 kPa | 982.1 kg/m3
343.14 K, 4662.8 kPa | 982.1 kg/m3
343.14 K, 4663.1 kPa | 982.1 kg/m3
343.14 K, 4671.9 kPa | 982.1 kg/m3
343.14 K, 4688.2 kPa | 982 kg/m3
343.14 K, 4712.1 kPa | 982.2 kg/m3
343.14 K, 4732.7 kPa | 982.3 kg/m3
343.14 K, 4774.6 kPa | 982.2 kg/m3
343.14 K, 4799.7 kPa | 982.2 kg/m3
343.14 K, 4821 kPa | 982.3 kg/m3
343.14 K, 4842.3 kPa | 982.4 kg/m3
343.14 K, 4868.4 kPa | 982.4 kg/m3
343.14 K, 4886.2 kPa | 982.3 kg/m3
343.14 K, 4912.7 kPa | 982.3 kg/m3
343.14 K, 21139 kPa | 994 kg/m3
343.14 K, 21166 kPa | 994 kg/m3
343.14 K, 21194 kPa | 994.3 kg/m3
343.14 K, 21221 kPa | 994 kg/m3
343.14 K, 21398 kPa | 994.3 kg/m3
343.14 K, 21431 kPa | 994.3 kg/m3
343.14 K, 21460 kPa | 994.4 kg/m3
343.14 K, 21488 kPa | 994.4 kg/m3
343.14 K, 21522 kPa | 994.5 kg/m3
343.14 K, 21550 kPa | 994.3 kg/m3
343.14 K, 21578 kPa | 994.5 kg/m3
343.14 K, 21611 kPa | 994.5 kg/m3
343.14 K, 21640 kPa | 994.4 kg/m3
343.14 K, 21669 kPa | 994.4 kg/m3
343.14 K, 21702 kPa | 994.5 kg/m3
343.14 K, 21732 kPa | 994.4 kg/m3
343.14 K, 21760 kPa | 994.6 kg/m3
343.14 K, 21795 kPa | 994.6 kg/m3
343.14 K, 21825 kPa | 994.6 kg/m3
343.14 K, 21856 kPa | 994.6 kg/m3
343.14 K, 21885 kPa | 994.7 kg/m3
343.14 K, 21920 kPa | 994.7 kg/m3
343.14 K, 21949 kPa | 994.6 kg/m3
343.14 K, 21979 kPa | 994.6 kg/m3
343.14 K, 22008 kPa | 994.7 kg/m3
343.14 K, 22044 kPa | 994.8 kg/m3
343.14 K, 22073 kPa | 994.7 kg/m3
343.14 K, 22109 kPa | 994.9 kg/m3
343.14 K, 22139 kPa | 994.8 kg/m3
343.14 K, 22169 kPa | 994.8 kg/m3
